Where a name gives a salt, the structure may show the parent alone.
Experiments:
[1] = Equilibrium binding constants (K) of corticosteroids with CAPTISOL (Example 46); settings: CAPTISOL (0.04 M); in M-1 (unit assumed)
Excerpt: (§1) The binding of a corticosteroid to the SAE-CD can be characterized by its equilibrium binding constant. The higher the binding constant, the more tightly the corticosteroid is bound to the SAE-CD.

[2] = Equilibrium binding constants (K) of corticosteroids with SBE6.1-γ-CD (Example 46); settings: (SBE)6.1 γ (0.04 M); in M-1 (unit assumed)
Excerpt: as §1

[3] = Phase solubility of corticosteroids with cyclodextrins (Example 23)
[4] = Fluticasone propionate concentration in SBE-Gamma ophthalmic solution, excess drug (Example 36 Method A); format: physicochemical; settings: 10% w/v SBE-Gamma (D.S.=6.1), 0.01% TWEEN
Experimental: A citrate buffer solution at a pH of 4.5 was prepared by mixing various portions of 0.003M citric acid with 0.003M of trisodium citrate. A phosphate buffer solution at a pH of 6.0 was prepared by mixing various portions of 0.003M monobasic sodium phosphate with 0.003M of dibasic sodium phosphate. […] An excess of fluticasone propionate was added to the vials and equilibrated on a rocker for three days. The samples were then filtered using a PVDF 0.22 μm syringe filter. Aliquots of the solutions were placed into clear glass 2 mL serum vials with aluminum crimp caps and Daikyo Flurotec septums. […] The concentration of the pH 6.0 solution was 238 μg/mL.

[5] = format: binding
Experimental: A composition of the invention can comprise SAE-CD, corticosteroid, aqueous liquid carrier, and an antihistamine. In some embodiments, the composition contains SAE-CD, budesonide, water (or aqueous buffer) and azelastine. Example 14 details the preparation of such a composition. Other solutions of azelastine in buffer with varying amounts of SAE-CD, in the absence of budesonide, were prepared and scanned by UV Spectrometer. The change in absorption as a function of SAE-CD concentration was plotted and used to determine the equilibrium binding constant of azelastine with SAE-CD, according to the Benesi-Hildebrand equation. […] The binding constant for budesonide under similar conditions was determined to be about 1000; therefore, azelastine will compete with budesonide, or another corticosteroid, for binding to SAE-CD. Accordingly, the amount of SAE-CD present can be increased to permit complete dissolution of both drugs.
(§2) The equilibrium binding constant of the corticosteroid can change when a second active agent is present in a composition of the invention. Since azelastine hydrochloride (AZ-HCl) has an approximately 10-fold higher binding constant for SBE-β-CD than does budesonide (BUD), the amount of SBE-β-CD present in an aqueous composition of the three needs to be sufficient to solubilize both drugs. Example 19 details a procedure for determination of the phase solubility of budesonide in the presence of varying amounts of azelastine. The results are depicted in FIGS. 11A (for SBE-β-CD) and 11B (for SBE-β-CD and SBE-γ-CD). […] FIG. 11B is a chart of the phase solubility of BUD as a function of SBE-β-CD or SBE-γ-CD concentration in solution using various different concentrations of AZ-HCl (1.00-2.75 mg.mL). […] Thus, increasing the amount of AZ-HCl in the solution decreases the overall solubility of BUD. […] Therefore, it is advantageous to prepare solution compositions of these combinations using SBE-γ-CD due to the efficiency of interaction so as to require less of one SAExCD versus another different SAEyCD to solubilize similar amounts of actives in the presence of each other.

[6] = Aqueous budesonide/olopatadine/CAPTISOL solution (Example 47); format: physicochemical
Experimental: An aqueous budesonide/olopatadine solution was prepared. […] Three mM citrate buffer was prepared at pH 4.5. […] Those citrate solutions were mixed to adjust the pH to 4.5. […] The solutions were transferred into 250 mL amber beakers with a magnetic stir disk. The solutions were mixed with a magnetic stir disk at 900 rpm at a temperature of 35° C. Approximately 34 milligrams of budesonide was suspended in each CAPTISOL solution. The samples were mixed with a magnetic stir disk at 900 rpm and 35° C. After 24 hours, the samples were filtered through 0.22 μm PVDF filter. The budesonide in the aliquots was assayed by an HPLC assay method and the concentrations were 340 μg/mL. […] Approximately 27 milligrams of olopatadine HCl was weighed into each of three 2 drams amber vials. The olopatadine HCl was suspended to 4 mL of budesonide/CAPTISOL solutions prepared in Part A. The samples were mixed on a roller mixer at RT. After 24 hours, the samples were filtered through 0.22 μm PVDF filter. The olopatadine and budesonide in the aliquots was assayed by HPLC assay methods, respectively. All olopatadine HCl concentrations were >6.6 mg/mL and all budesonide concentrations were >320 μg/mL. […] Approximately 27 milligrams of olopatadine HCl were weighed into each of three 2 drams amber vials. The olopatadine HCl was suspended to 4 mL of budesonide/CAPTISOL solutions prepared in Part A. The samples were mixed on a roller mixer at RT. After 1 hour, the pH of each sample was adjusted to 4.5 with 1N NaOH. Again, the samples were mixed on a roller mixer at RT. […] All samples were filtered through 0.22 μm PVDF filter. The olopatadine and budesonide in the aliquots were assayed by HPLC assay methods, respectively.

[7] = format: binding; remark: listed apart in the source
Excerpt: as §2

[8] = Stability of budesonide R- and S-isomers with and without SBE7-β-CD (Example 13); format: physicochemical; settings: pH 4 and 6, all temperatures (60° C., 80° C.)
Experimental: SAE-CD is also capable of stabilizing the isomers of budesonide to different extents. […] At a given temperature the ratio of rate constants with/without SBE7-β-CD was less at pH 6 than at pH 4. Although SBE7-β-CD stabilized both isomers, the S-isomer appears to be stabilized to an even greater extent than the R. At all temperatures and pHs tested, the ratio of rate constants with/without SBE7-β-CD was lower for the S isomer. The degree of stabilization affected by SBE7-β-CD at 60° C. is greater than at 80° C. An even greater degree of stabilization would be expected at 40° C. and/or room temperature (20-30° C.). […] The loss of budesonide was first order and […]. […] To achieve a concentration of budesonide in the buffers without SBE7-β-CD sufficient for accurate measurement, the budesonide was dissolved first in 100% ethyl alcohol. […] All solution preps and procedures involving budesonide were done in a darkened room under red light. […] The final budesonide concentration was about 50 μg/mL. […] Each solution was aliquoted into individual amber vials. They were then placed in ovens at 60° C. and 80° C. Sample vials were removed from the ovens and analyzed by HPLC at 0, 96, 164, and 288 hours. The HPLC assay conditions are summarized below. […]

[9] = Phase solubility of budesonide in the presence of SAE-CD and azelastine hydrochloride (Example 19); format: physicochemical; settings: SBE-β-CD or SBE-γ-CD solutions, pH 4.5 citrate buffer
Excerpt: The equilibrium binding constant of the corticosteroid can change when a second active agent is present in a composition of the invention. Since azelastine hydrochloride (AZ-HCl) has an approximately 10-fold higher binding constant for SBE-β-CD than does budesonide (BUD), the amount of SBE-β-CD present in an aqueous composition of the three needs to be sufficient to solubilize both drugs. Example 19 details a procedure for determination of the phase solubility of budesonide in the presence of varying amounts of azelastine. The results are depicted in FIGS. 11A (for SBE-β-CD) and 11B (for SBE-β-CD and SBE-γ-CD). […] FIG. 11B is a chart of the phase solubility of BUD as a function of SBE-β-CD or SBE-γ-CD concentration in solution using various different concentrations of AZ-HCl (1.00-2.75 mg.mL). […] Thus, increasing the amount of AZ-HCl in the solution decreases the overall solubility of BUD. […]
A stock solution of citrate buffer (3 mM, pH 4.5) was prepared. […] Any budesonide remaining suspended in the solutions was removed by filtration and the concentration of budesonide in each solution measured by HPLC as described herein. […]

Row | SMILES | Binding Constant- K [1] | Binding Constant- K [2] | further results
1 | CC1(C)O[C@@H]2C[C@H]3[C@@H]4C[C@H](F)C5=CC(=O)C=C[C@]5(C)[C@H]4[C@@H](O)C[C@]3(C)[C@]2(C(=O)CO)O1 [Flunisolide] | 590 | 1104 | –
2 | CC1(C)O[C@@H]2C[C@H]3[C@@H]4CCC5=CC(=O)C=C[C@]5(C)[C@@]4(F)[C@@H](O)C[C@]3(C)[C@]2(C(=O)CO)O1 [Triamcinolone acetonide, triamcinolone acetonide] | – | – | Approximate Molar Ratio at Saturated Solubility of Corticosteroid (SAE-CD:corticosteroid) ([3]; SAE-β-CD): 8.8; Approximate Molar Ratio at Saturated Solubility of Corticosteroid (SAE-CD:corticosteroid) ([3]; SAE-γ-CD): 3.8
3 | C[C@]12C=CC(=O)C=C1CC[C@@H]1[C@@H]2[C@@H](O)C[C@@]2(C)[C@H]1CC[C@]2(O)C(=O)CO [Prednisolone] | 1496 | 1653 | –
4 | C[C@]12CCC(=O)C=C1CC[C@@H]1[C@@H]2[C@@H](O)C[C@@]2(C)[C@H]1CC[C@]2(O)C(=O)CO [Hydrocortisone] | 1932 | 1430 | –
5 | CCC(=O)O[C@]1(C(=O)SCF)[C@H](C)C[C@H]2[C@@H]3C[C@H](F)C4=CC(=O)C=C[C@]4(C)[C@@]3(F)[C@@H](O)C[C@@]21C [Fluticasone propionate, fluticasone propionate] | 322 | 3338 | Concentration in solution (excess drug, filtered) ([4]; citrate buffer pH 4.5): 232 µg/mL; Concentration in solution (excess drug, filtered) ([4]; phosphate buffer pH 6.0): 238 µg/mL
6 | CCC(=O)OCC(=O)[C@@]1(OC(=O)CC)[C@@H](C)C[C@H]2[C@@H]3CCC4=CC(=O)C=C[C@]4(C)[C@@]3(Cl)[C@@H](O)C[C@@]21C [Beclomethasone dipropionate, beclomethasone dipropionate] | 684 | 2862 | –
7 | CN1CCCC(n2nc(Cc3ccc(Cl)cc3)c3ccccc3c2=O)CC1 (stereo not drawn) [azelastine HCL, azelastine hydrochloride] | – | – | Binding constant for SBE-β-CD relative to budesonide ([5]; AZ-HCl versus BUD): approximately 10 fold
8 | CN(C)CC/C=C1/c2ccccc2COc2ccc(CC(=O)O)cc21 [olopatadine HCl] | – | – | Olopatadine HCl concentration ([6]; Part B, all CAPTISOL concentrations (5, 7.5, 10% w/v), pH ~3.8): > 6.6 mg/mL; Olopatadine HCl concentration ([6]; Part C, pH adjusted to 4.5, CAPTISOL 5% w/v (precipitation)): 6.5 mg/mL; Olopatadine HCl concentration ([6]; Part C, pH adjusted to 4.5, CAPTISOL 7.5 and 10% w/v): > 6.6 mg/mL
9 | CCCC1O[C@@H]2C[C@H]3[C@@H]4CCC5=CC(=O)C=C[C@]5(C)[C@H]4[C@@H](O)C[C@]3(C)[C@]2(C(=O)CO)O1 (stereo partly drawn) [Budesonide, (R,S)-11β, 16α, 17, 21-tetrahydroxypregna-1,4-diene-3, 20-dione cyclic 16, 17-acetal with butyraldehyde] | – | – | Equilibrium complex stability constant with SBE-β-CD [5]: 1000 M⁻¹; Equilibrium complex stability constant with SBE-γ-CD [7]: 2000 M⁻¹; With/without CAPTISOL ratio of degradation rate constants [8]: less than 1; Overall solubility of BUD with increasing amount of AZ-HCl [9]: decreases
10 | C[C@@H]1C[C@H]2[C@@H]3CCC4=CC(=O)C=C[C@]4(C)[C@@]3(Cl)[C@@H](O)C[C@]2(C)[C@@]1(OC(=O)c1ccco1)C(=O)CCl [Mometasone Fuorate] | 201 | 551 | –

From US12370352B2, “Nasal and ophthalmic delivery of aqueous corticosteroid solutions” (CyDex Pharmaceuticals, Inc., priority 2007, dated 2025)
